Measurements as given in patent US20110230476A1, “PI3 KINASE INHIBITORS AND USES THEREOF” (AVILA THERAPEUTICS, INC., priority 2009, published 2011).

Each compound was assayed against T1, PI3Kα (p110α/p85α) (Homo sapiens, UniProt P42336) (assay: HTRF assay, potency against active PI3Kα). Settings: HTRF; [ATP]=50 μM, [di-C8-PIP2]=10 μM; 30 min pre-incubation; read-out: PI3Kα Inhibition.
T1 construct: purchased BPS Bioscience (San Diego, Calif.) or Millipore (Billerica, Mass.)
Assay type: biochemical
Protocol: Homogeneous Time Resolved Fluorescence (HTRF) Assay Protocol for Potency Assessment Against the Active Forms of PI3Kα, PI3Kβ, and PI3Kγ
The mechanics of the assay platform are best described by the vendor (Millipore, Billerica, Mass.) on their website at the following URL: www.millipore.com/coa/tech1/74jt4z.
Briefly, Stop solution (Stop A, #33-007 and Stop B, #33-009; 3:1 ratio) and Detection Mix (from DMC, #33-015 with DMA, #33-011 and DMB, #33-013; 18:1:1 ratio) were prepared as recommended by the manufacturer about 2 hrs prior to use. […] Lipid kinase reactions were started with the addition of 5 μL of ATP solution, mixed for 15 sec on a rotary plate shaker and incubated for 30-60 minutes at 25° C. Next, reactions were stopped with a 5 μL addition of Stop solution immediately followed by a 5 μL volume of Detection Mix. […] At the conclusion of each assay, the HTRF ratio from fluorescence emission values for each well was calculated and % Inhibition determined from averaged controls wells (+/−PI3K enzyme). % Inhibition values for each compound were then plotted against inhibitor concentration to estimate IC50 from log [Inhibitor] vs Response, Variable Slope model in GraphPad Prism from GraphPad Software (San Diego, Calif.).

T1 sequence (P42336 whole entry): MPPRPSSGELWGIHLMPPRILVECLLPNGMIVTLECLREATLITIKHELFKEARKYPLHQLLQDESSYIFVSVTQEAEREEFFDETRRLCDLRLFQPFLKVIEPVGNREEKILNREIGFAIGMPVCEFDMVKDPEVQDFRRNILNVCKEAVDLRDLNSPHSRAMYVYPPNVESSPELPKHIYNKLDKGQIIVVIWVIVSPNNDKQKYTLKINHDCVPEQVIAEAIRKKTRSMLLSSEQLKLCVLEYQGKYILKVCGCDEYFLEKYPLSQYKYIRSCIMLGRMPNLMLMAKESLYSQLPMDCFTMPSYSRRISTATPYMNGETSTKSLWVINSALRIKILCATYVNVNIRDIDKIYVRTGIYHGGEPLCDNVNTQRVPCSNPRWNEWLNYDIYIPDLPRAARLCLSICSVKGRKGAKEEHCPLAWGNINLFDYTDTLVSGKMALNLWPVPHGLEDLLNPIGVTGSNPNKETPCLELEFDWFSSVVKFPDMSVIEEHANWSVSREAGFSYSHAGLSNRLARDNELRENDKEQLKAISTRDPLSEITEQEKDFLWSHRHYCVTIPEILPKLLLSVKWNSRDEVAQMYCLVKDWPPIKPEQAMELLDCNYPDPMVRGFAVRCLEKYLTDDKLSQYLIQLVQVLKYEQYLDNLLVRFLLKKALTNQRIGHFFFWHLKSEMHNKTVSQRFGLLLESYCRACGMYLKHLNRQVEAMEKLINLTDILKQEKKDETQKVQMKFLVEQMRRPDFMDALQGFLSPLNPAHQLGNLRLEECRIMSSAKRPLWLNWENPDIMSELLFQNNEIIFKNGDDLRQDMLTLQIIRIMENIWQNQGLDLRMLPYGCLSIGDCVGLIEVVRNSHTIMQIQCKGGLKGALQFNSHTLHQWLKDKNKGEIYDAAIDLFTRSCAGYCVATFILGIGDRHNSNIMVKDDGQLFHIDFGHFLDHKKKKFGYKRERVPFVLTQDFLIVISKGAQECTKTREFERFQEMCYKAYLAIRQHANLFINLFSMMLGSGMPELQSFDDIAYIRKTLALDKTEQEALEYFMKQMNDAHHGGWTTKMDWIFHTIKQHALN
T1 sequence (P27986 whole entry partner): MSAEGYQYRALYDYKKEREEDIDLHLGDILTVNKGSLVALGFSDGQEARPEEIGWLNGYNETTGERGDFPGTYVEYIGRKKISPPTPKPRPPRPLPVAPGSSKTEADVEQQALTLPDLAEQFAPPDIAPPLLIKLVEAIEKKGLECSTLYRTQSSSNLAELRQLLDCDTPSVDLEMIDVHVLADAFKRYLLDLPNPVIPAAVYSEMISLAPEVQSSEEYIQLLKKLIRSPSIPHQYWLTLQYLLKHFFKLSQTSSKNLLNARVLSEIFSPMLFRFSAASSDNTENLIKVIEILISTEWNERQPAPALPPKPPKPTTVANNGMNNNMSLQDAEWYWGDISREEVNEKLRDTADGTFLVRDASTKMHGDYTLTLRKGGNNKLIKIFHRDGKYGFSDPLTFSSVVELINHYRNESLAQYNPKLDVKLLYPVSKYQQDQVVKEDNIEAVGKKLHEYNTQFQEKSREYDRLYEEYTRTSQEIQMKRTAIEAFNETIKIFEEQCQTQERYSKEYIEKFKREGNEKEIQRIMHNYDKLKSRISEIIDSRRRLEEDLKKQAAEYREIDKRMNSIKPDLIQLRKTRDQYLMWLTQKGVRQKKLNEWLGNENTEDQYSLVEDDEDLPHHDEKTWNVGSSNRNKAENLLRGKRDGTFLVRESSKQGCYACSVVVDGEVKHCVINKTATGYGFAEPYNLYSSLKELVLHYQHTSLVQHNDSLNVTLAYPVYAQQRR

Question: How did the IC50 turn out when C=CC(=O)N1CCN(C2CCC(O)(c3cc4nc(-c5cccc6[nH]ncc56)nc(N5CCOCC5)c4s3)CC2)CC1 (mixture of isomers) [II-a-152, 1-(4-(4-(2-(1H-indazol-4-yl)-4-morpholinothieno[3,2-d]pyrimidin-6-yl)-4-hydroxycyclohexyl)piperazin-1-yl)prop-2-en-1-one] was run?
Answer: Its IC50 is 100 to 1000 nM.

Question: With C=CC(=O)NCc1ccc(OC)c(-n2c(CSc3ncnc4[nH]cnc34)nc3cccc(Cl)c3c2=O)c1 [I-5, N-(3-(2-((9H-purin-6-ylthio)methyl)-5-chloro-4-oxoquinazolin-3(4H)-yl)-4-methoxybenzyl)acrylamide] as the compound, how does the IC50 read?
Answer: The IC50 was greater than 1000 nM.

Question: For C/C=C/C(=O)CCC(=O)NCc1ccc(OC)c(-n2c(CSc3ncnc4[nH]cnc34)nc3cccc(Cl)c3c2=O)c1 [I-6, (E)-N-(3-(2-((9H-purin-6-ylthio)methyl)-5-chloro-4-oxoquinazolin-3(4H)-yl)-4-methoxybenzyl)-4-oxohept-5-enamide], which IC50 is on record?
Answer: The IC50 was greater than 1000 nM.

Question: C=CC(=O)N1CCN(Cc2cc3nc(-c4cccc5[nH]ncc45)nc(N4CCOCC4)c3s2)CC1 [II-a-2, 1-(4-((2-(1H-indazol-4-yl)-4-morpholinothieno[3,2-d]pyrimidin-6-yl)methyl)piperazin-1-yl)prop-2-en-1-one] was tested. Which IC50 did it give?
Answer: The IC50 was 10 to 100 nM.

Question: C/C=C/C(=O)CCC(=O)NCCCC(=O)N1CCN(Cc2cc3nc(-c4cccc5[nH]ncc45)nc(N4CCOCC4)c3s2)CC1 [II-a-19, (E)-N-(4-(4-((2-(1H-indazol-4-yl)-4-morpholinothieno[3,2-d]pyrimidin-6-yl)methyl)piperazin-1-yl)-4-oxobutyl)-4-oxohept-5-enamide] was tested. Which IC50 did it give?
Answer: The IC50 was 10 to 100 nM.

Question: For C=CC(=O)NCCCC(=O)N1CCN(Cc2cc3nc(-c4cccc5[nH]ncc45)nc(N4CCOCC4)c3s2)CC1 [II-a-20, N-(4-(4-((2-(1H-indazol-4-yl)-4-morpholinothieno[3,2-d]pyrimidin-6-yl)methyl)piperazin-1-yl)-4-oxobutyl)acrylamide], which IC50 is on record?
Answer: The IC50 was 100 to 1000 nM.

Question: For C/C=C/C(=O)CCCC(=O)N1CC=C(c2cc3nc(-c4cccc5[nH]ncc45)nc(N4CCOCC4)c3s2)CC1 [II-a-60, (E)-1-(4-(2-(1H-indazol-4-yl)-4-morpholinothieno[3,2-d]pyrimidin-6-yl)-5,6-dihydropyridin-1(2H)-yl)oct-6-ene-1,5-dione], which IC50 is on record?
Answer: The IC50 was 10 to 100 nM.

Question: Which IC50 does the source give for C/C=C/C(=O)CCCC(=O)NCC(=O)N1CC=C(c2cc3nc(-c4cccc5[nH]ncc45)nc(N4CCOCC4)c3s2)CC1 [II-a-61, (E)-N-(2-(4-(2-(1H-indazol-4-yl)-4-morpholinothieno[3,2-d]pyrimidin-6-yl)-5,6-dihydropyridin-1(2H)-yl)-2-oxoethyl)-5-oxooct-6-enamide] here?
Answer: Its IC50 is less than 10 nM.

Question: How did the IC50 turn out when CC(C)OC/C=C/C(=O)CCC(=O)N1CCN(Cc2cc3nc(-c4cccc5[nH]ncc45)nc(N4CCOCC4)c3s2)CC1 [II-a-62, (E)-1-(4-((2-(1H-indazol-4-yl)-4-morpholinothieno[3,2-d]pyrimidin-6-yl)methyl)piperazin-1-yl)-7-isopropoxyhept-5-ene-1,4-dione] was run?
Answer: The IC50 was 10 to 100 nM.

Question: Which IC50 does the source give for CCC/C=C/C(=O)CCC(=O)N1CCN(Cc2cc3nc(-c4cccc5[nH]ncc45)nc(N4CCOCC4)c3s2)CC1 [II-a-63, (E)-1-(4-((2-(1H-indazol-4-yl)-4-morpholinothieno[3,2-d]pyrimidin-6-yl)methyl)piperazin-1-yl)non-5-ene-1,4-dione] here?
Answer: The IC50 was less than 10 nM.

Question: C=CC(=O)NCc1ccc(-c2cc3nc(-c4cccc(O)c4)nc(N4CCOCC4)c3s2)cc1 [II-a-65, N-(4-(2-(3-hydroxyphenyl)-4-morpholinothieno[3,2-d]pyrimidin-6-yl)benzyl)acrylamide] was tested. Which IC50 did it give?
Answer: Its IC50 is less than 10 nM.

Question: For C=CC(=O)N1CCc2cc(-c3cc4nc(-c5cccc(O)c5)nc(N5CCOCC5)c4s3)ccc2C1 [II-a-66, 1-(6-(2-(3-hydroxyphenyl)-4-morpholinothieno[3,2-d]pyrimidin-6-yl)-3,4-dihydroisoquinolin-2(1H)-yl)prop-2-en-1-one], which IC50 is on record?
Answer: Its IC50 is 10 to 100 nM.

Question: Which IC50 does the source give for C/C=C/C(=O)CCC(=O)N1CCc2ccc(-c3cc4nc(-c5cccc(O)c5)nc(N5CCOCC5)c4s3)cc2C1 [II-a-67, (E)-1-(7-(2-(3-hydroxyphenyl)-4-morpholinothieno[3,2-d]pyrimidin-6-yl)-3,4-dihydroisoquinolin-2(1H)-yl)hept-5-ene-1,4-dione] here?
Answer: Its IC50 is less than 10 nM.

Question: How did the IC50 turn out when C/C=C/C(=O)CCC(=O)N1Cc2ccc(-c3cc4nc(-c5cccc(O)c5)nc(N5CCOCC5)c4s3)cc2C1 [II-a-68, (E)-1-(5-(2-(3-hydroxyphenyl)-4-morpholinothieno[3,2-d]pyrimidin-6-yl)isoindolin-2-yl)hept-5-ene-1,4-dione] was run?
Answer: Its IC50 is less than 10 nM.

Question: Which IC50 does the source give for C=CC(=O)N1CCC(O)(C#Cc2cc3nc(-c4cccc(O)c4)nc(N4CCOCC4)c3s2)CC1 [II-a-69, 1-(4-hydroxy-4-((2-(3-hydroxyphenyl)-4-morpholinothieno[3,2-d]pyrimidin-6-yl)ethynyl)piperidin-1-yl)prop-2-en-1-one] here?
Answer: Its IC50 is 10 to 100 nM.

Question: For C=CC(=O)N1CCC(C#Cc2cc3nc(-c4cccc(O)c4)nc(N4CCOCC4)c3s2)CC1 [II-a-70, 1-(4-((2-(3-hydroxyphenyl)-4-morpholinothieno[3,2-d]pyrimidin-6-yl)ethynyl)piperidin-1-yl)prop-2-en-1-one], which IC50 is on record?
Answer: Its IC50 is 10 to 100 nM.

Question: C=CC(=O)N1CCN(c2ccc(-c3cc4nc(-c5cccc6[nH]ncc56)nc(N5CCOCC5)c4s3)cc2)CC1 [II-a-78, 1-(4-(4-(2-(1H-indazol-4-yl)-4-morpholinothieno[3,2-d]pyrimidin-6-yl)phenyl)piperazin-1-yl)prop-2-en-1-one] was tested. Which IC50 did it give?
Answer: The IC50 was 100 to 1000 nM.

Question: How did the IC50 turn out when C/C=C/C(=O)CCC(=O)NCc1cccc(-c2cc3nc(-c4cccc(O)c4)nc(N4CCOCC4)c3s2)c1 [II-a-79, (E)-N-(3-(2-(3-hydroxyphenyl)-4-morpholinothieno[3,2-d]pyrimidin-6-yl)benzyl)-4-oxohept-5-enamide] was run?
Answer: Its IC50 is less than 10 nM.

Question: Which IC50 does the source give for C/C=C/C(=O)CCC(=O)NCc1ccc(-c2cc3nc(-c4cccc(O)c4)nc(N4CCOCC4)c3s2)cc1 [II-a-80, (E)-N-(4-(2-(3-hydroxyphenyl)-4-morpholinothieno[3,2-d]pyrimidin-6-yl)benzyl)-4-oxohept-5-enamide] here?
Answer: Its IC50 is less than 10 nM.

Question: How did the IC50 turn out when C=CC(=O)NC1CCN(c2ccc(-c3cc4nc(-c5cccc(O)c5)nc(N5CCOCC5)c4s3)cc2)CC1 [II-a-81, N-(1-(4-(2-(3-hydroxyphenyl)-4-morpholinothieno[3,2-d]pyrimidin-6-yl)phenyl)piperidin-4-yl)acrylamide] was run?
Answer: Its IC50 is 10 to 100 nM.

Question: With C=CC(=O)NCCC(=O)N1CC=C(c2cc3nc(-c4cccc5[nH]ncc45)nc(N4CCOCC4)c3s2)CC1 [II-a-95, N-(3-(4-(2-(1H-indazol-4-yl)-4-morpholinothieno[3,2-d]pyrimidin-6-yl)-5,6-dihydropyridin-1(2H)-yl)-3-oxopropyl)acrylamide] as the compound, how does the IC50 read?
Answer: The IC50 was greater than 1000 nM.

Question: For C=CC(=O)N[C@H]1CCCC[C@H]1C(=O)N1CCN(Cc2cc3nc(-c4cccc5[nH]ncc45)nc(N4CCOCC4)c3s2)CC1 [II-a-96], which IC50 is on record?
Answer: Its IC50 is 100 to 1000 nM.

Question: For C=CC(=O)N[C@@H]1CCCC[C@H]1C(=O)N1CCN(Cc2cc3nc(-c4cccc5[nH]ncc45)nc(N4CCOCC4)c3s2)CC1 [II-a-97], which IC50 is on record?
Answer: The IC50 was 100 to 1000 nM.

Question: With C=CC(=O)N[C@H]1CCC[C@@H](C(=O)N2CCN(Cc3cc4nc(-c5cccc6[nH]ncc56)nc(N5CCOCC5)c4s3)CC2)C1 [II-a-98] as the compound, how does the IC50 read?
Answer: The IC50 was 100 to 1000 nM.

Question: How did the IC50 turn out when C=CC(=O)N[C@H]1CC[C@@H](C(=O)N2CCN(Cc3cc4nc(-c5cccc6[nH]ncc56)nc(N5CCOCC5)c4s3)CC2)CC1 [II-a-99] was run?
Answer: The IC50 was 100 to 1000 nM.

Question: How did the IC50 turn out when C=CC(=O)N[C@H]1CC[C@H](C(=O)N2CCN(Cc3cc4nc(-c5cccc6[nH]ncc56)nc(N5CCOCC5)c4s3)CC2)CC1 [II-a-100] was run?
Answer: The IC50 was 100 to 1000 nM.

Question: How did the IC50 turn out when C=CC(=O)N1CCC(O)(C#Cc2cc3nc(-c4cccc5[nH]ncc45)nc(N4CCOCC4)c3s2)CC1 [II-a-101, 1-(4-((2-(1H-indazol-4-yl)-4-morpholinothieno[3,2-d]pyrimidin-6-yl)ethynyl)-4-hydroxypiperidin-1-yl)prop-2-en-1-one] was run?
Answer: The IC50 was 100 to 1000 nM.

Question: For C/C=C/C(=O)CCC(=O)N1CCN(c2ccc(-c3cc4nc(-c5cccc(O)c5)nc(N5CCOCC5)c4s3)cc2)CC1 [II-a-102, (E)-1-(4-(4-(2-(3-hydroxyphenyl)-4-morpholinothieno[3,2-d]pyrimidin-6-yl)phenyl)piperazin-1-yl)hept-5-ene-1,4-dione], which IC50 is on record?
Answer: Its IC50 is less than 10 nM.

Question: C=C(C)C(=O)CCC(=O)N1CCC(C#Cc2cc3nc(-c4cccc(O)c4)nc(N4CCOCC4)c3s2)CC1 [II-a-103, 1-(4-((2-(3-hydroxyphenyl)-4-morpholinothieno[3,2-d]pyrimidin-6-yl)ethynyl)piperidin-1-yl)-5-methylhex-5-ene-1,4-dione] was tested. Which IC50 did it give?
Answer: The IC50 was less than 10 nM.

Question: How did the IC50 turn out when C/C=C/C(=O)CCC(=O)N1CCC(O)(C#Cc2cc3nc(-c4cccc(O)c4)nc(N4CCOCC4)c3s2)CC1 [II-a-104, (E)-1-(4-hydroxy-4-((2-(3-hydroxyphenyl)-4-morpholinothieno[3,2-d]pyrimidin-6-yl)ethynyl)piperidin-1-yl)hept-5-ene-1,4-dione] was run?
Answer: Its IC50 is less than 10 nM.

Question: With C=C(C)C(=O)CCC(=O)N1CCC(O)(C#Cc2cc3nc(-c4cccc(O)c4)nc(N4CCOCC4)c3s2)CC1 [II-a-105, 1-(4-hydroxy-4-((2-(3-hydroxyphenyl)-4-morpholinothieno[3,2-d]pyrimidin-6-yl)ethynyl)piperidin-1-yl)-5-methylhex-5-ene-1,4-dione] as the compound, how does the IC50 read?
Answer: The IC50 was less than 10 nM.
